Assay results published in US20140030260A1, “METHODS AND COMPOSITIONS TO ELIMINATE CHRONIC LYMPHOCYTIC LEUKEMIA AND OTHER HEMATOLOGIC MALIGNANT CELLS IN STROMAL MICROENVIRONMENT FOR CANCER THERAPY” (BOARD OF REGENTS, THE UNIVERSITY OF TEXAS SYSTEM, priority 2010, published 2014).
“Also recorded” adds a separate entry of the source.

Assays:
[1] = test system: primary leukemia cells (CLL); experiment: Viability of primary CLL cells cultured alone or with stromal cells, flow cytometry after annexin-V/PI double-staining; conditions: for effect on the toxicity of selecticine in CLL cells: patient #17, co-culture with various types of marrow cells, 20 μM selecticine
Protocol: The cells were then treated with 50 μM selecticine for 2 days, and cell viability was measured by flow cytometry analysis after double-staining with annexin-V and PI.
The cells were then treated with 50 or 100 μM selecticine for 2 days. Cell viability was then measured by flow cytometry analysis after double-staining with annexin-V and PI.
The cells were then treated with 50 μM selecticine for 2 days. Cell viability was then measured by flow cytometry analysis after double-staining with annexin-V and PI.
Cell viability was then measured by flow cytometry analysis after double-staining with annexin-V and PI.
CLL cells isolated from two different patients were treated as follow: (1) Control (CLL alone); (2) Selenocystine mixed with the conditioned medium (CM) of stromal cell culture; (3) Medium from stromal cell culture incubated with selenocystine. After an additional 48-h incubation with CLL cells (without stramal), cell viability was measured by flow cytometry analysis after double-staining with annexin-V and PI.
CLL cells (without stromal) were then incubated for 72 hours with: (1) control medium; (2) 200 μM 2-mercaptoethanol (2ME) alone; (3) 50 μM selenocystine alone; (4) Selecticine-02 (50 μM selenocystine+200 μM 2-mercaptoethanol pre-mixed overnight). Cell viability was measured by flow cytometry analysis after double-staining with annexin-V and PI.
The experimental conditions were the same as FIG. 14, except the selenocystine:2ME ration was 5:2 instead of 1:4.
The cells were then treated with 50 mM selenocystine for 2 days.

CLL cells = experiment: ROS, cellular thiol and glutathione in CLL cells (mitosox Red, CMFDA); assay type: cell-based, human; conditions: in the presence of stromal cells (HS-5); 50 μM
Source text: Mitochondrial ROS levels were stained by mitosox Red (A) and cellular thiol was stained by CMFDA (B).

[2] = test system: EBV-immortalized normal lymphocytes; experiment: Viability of immortalized normal lymphocytes with or without stromal cells, annexin-V/PI flow cytometry; assay type: cell-based; conditions: not further specified
Source text: The numbers indicate % of viable cells.

CC(=O)N[C@@H](CS)C(=O)O [NAC, reference compound]
effect on the toxicity of selecticine in CLL cells [1]: protected

NC(C[Se][Se]CC(N)C(=O)O)C(=O)O (stereo not drawn) [selenocystine, 2-amino-3-(2-amino-2-carboxy-ethyl)selanylselanyl-propanoic acid]
cytotoxic effect on leukemia (CLL) cells ([1]; cultured alone / in the absence of stromal cells): only moderate cytotoxic effect | killing of primary CLL cells (cell viability) ([1]; in the presence of bone marrow stromal cells (HS-5), 50 μM, 2 days): highly potent cytotoxic effect; also recorded: considerable leukemia cell death | toxicity to CLL cells after conversion by stromal factor in stromal conditioned medium ([1]; mixed or incubated with stromal cell culture medium, 48-h incubation with CLL cells without stromal cells): highly toxic | ROS generation in CLL cells (mitochondrial ROS, mitosox Red) (CLL cells): significant increase in ROS production

Nc1nc(F)nc2c1ncn2[C@@H]1O[C@H](CO)[C@@H](O)[C@@H]1O [F-ara-A, reference compound]
effect of stromal cells on the drug's cytotoxicity in CLL cells ([1]; patient #10, different types of stromal cells, 50 μM selecticine, 20 μM F-ara-A or 20 μM oxaliplatin, 2 days): protected

CCCCS(=N)(=O)CCC(N)C(=O)O (stereo not drawn) [BSO, reference compound]
effect on the toxicity of selecticine in CLL cells [1]: enhanced

NC(C[SeH])C(=O)O (stereo not drawn) [selenocysteine, 3-selenyl-2-aminopropanoic acid]
toxicity to normal cells [2]: low toxicity | toxicity to CLL leukemia cells of the active compound formed by stromal cells ([1]; mechanistic studies): highly toxic
